Drawing on ChEMBL document CHEMBL5653631, “A Potent and Selective ULK1 Inhibitor Suppresses Autophagy and Sensitizes Cancer Cells to Nutrient Stress” (iScience, 2018), this text covers inhibition and fold change (FC) for 3 compounds.

In assay [1] the target is Tyrosine-protein kinase Fyn (Homo sapiens) (UniProt P06241). The assay can be described thus: Inhibition of human recombinant FYN at 40 nM in presence of ATP by radiometric assay relative to control.
Assay [2] has as its target Angiopoietin-1 receptor (Homo sapiens) (UniProt Q02763). As to the kind of experiment: Inhibition of human recombinant Tie2 at 40 nM in presence of ATP by radiometric assay relative to control.
The target in assay [3] is Tyrosine-protein kinase Fes/Fps (Homo sapiens) (UniProt P07332). As to the kind of experiment: Inhibition of human recombinant FES at 40 nM related to control ULK1.
The target in assay [4] is Serine/threonine-protein kinase NIM1 (Homo sapiens) (UniProt Q8IY84). The assay can be described thus: Inhibition of human recombinant NIM1 at 40 nM related to control ULK1.
Assay [5] addresses Cyclin-dependent kinase 2 (Homo sapiens) (UniProt P24941). As to the kind of experiment: Inhibition of human recombinant CDK2 at 500 nM in presence of ATP by radiometric assay relative to control.
The target of assay [6] is T1, Serine/threonine-protein kinase 17A (Homo sapiens) (UniProt Q9UEE5).
T1 sequence (whole entry): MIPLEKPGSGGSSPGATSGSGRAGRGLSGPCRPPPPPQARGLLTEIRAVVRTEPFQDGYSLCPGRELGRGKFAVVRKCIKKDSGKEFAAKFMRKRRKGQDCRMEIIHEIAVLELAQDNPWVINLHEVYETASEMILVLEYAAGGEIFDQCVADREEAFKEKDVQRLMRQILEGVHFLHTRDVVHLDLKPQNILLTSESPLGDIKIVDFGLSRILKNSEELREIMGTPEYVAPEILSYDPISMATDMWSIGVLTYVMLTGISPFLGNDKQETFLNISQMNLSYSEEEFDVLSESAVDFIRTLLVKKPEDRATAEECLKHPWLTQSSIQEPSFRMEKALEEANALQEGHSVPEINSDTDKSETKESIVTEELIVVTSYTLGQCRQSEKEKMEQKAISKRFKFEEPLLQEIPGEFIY
As to the kind of experiment: Inhibition of human recombinant DRAK1 at 500 nM in presence of ATP by radiometric assay relative to control.

In assay [7] the target is Protein kinase C delta type (Homo sapiens) (UniProt Q05655). As to the kind of experiment: Inhibition of human recombinant PKCd at 500 nM in presence of ATP by radiometric assay relative to control.
Assay [8] has as its target Tyrosine-protein kinase BTK (Homo sapiens) (UniProt Q06187). As to the kind of experiment: Inhibition of human recombinant BTK at 500 nM related to control ULK1.
For assay [9], the target named is T2, Dual specificity tyrosine-phosphorylation-regulated kinase 2 (Homo sapiens) (UniProt Q92630).
T2 sequence (whole entry): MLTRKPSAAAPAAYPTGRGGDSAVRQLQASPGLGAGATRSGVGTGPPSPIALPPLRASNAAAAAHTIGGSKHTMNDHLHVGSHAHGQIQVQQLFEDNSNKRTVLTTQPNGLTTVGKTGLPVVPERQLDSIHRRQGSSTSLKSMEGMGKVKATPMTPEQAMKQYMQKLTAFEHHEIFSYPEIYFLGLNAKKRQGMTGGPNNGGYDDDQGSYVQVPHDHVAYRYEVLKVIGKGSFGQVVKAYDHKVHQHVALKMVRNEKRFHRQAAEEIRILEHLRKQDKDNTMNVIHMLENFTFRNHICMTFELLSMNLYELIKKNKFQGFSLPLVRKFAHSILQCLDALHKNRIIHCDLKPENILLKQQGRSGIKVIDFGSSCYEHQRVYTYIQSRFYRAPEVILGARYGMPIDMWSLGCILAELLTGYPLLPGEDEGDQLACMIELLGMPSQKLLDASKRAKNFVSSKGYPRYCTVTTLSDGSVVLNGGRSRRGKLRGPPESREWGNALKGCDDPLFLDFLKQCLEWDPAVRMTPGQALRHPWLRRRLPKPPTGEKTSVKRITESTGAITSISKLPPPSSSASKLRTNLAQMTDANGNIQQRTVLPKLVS
As to the kind of experiment: Inhibition of human recombinant DYRK2 at 500 nM related to control ULK1.

In assay [10] the target is T3, Muscle, skeletal receptor tyrosine-protein kinase (Homo sapiens) (UniProt O15146).
T3 sequence (whole entry): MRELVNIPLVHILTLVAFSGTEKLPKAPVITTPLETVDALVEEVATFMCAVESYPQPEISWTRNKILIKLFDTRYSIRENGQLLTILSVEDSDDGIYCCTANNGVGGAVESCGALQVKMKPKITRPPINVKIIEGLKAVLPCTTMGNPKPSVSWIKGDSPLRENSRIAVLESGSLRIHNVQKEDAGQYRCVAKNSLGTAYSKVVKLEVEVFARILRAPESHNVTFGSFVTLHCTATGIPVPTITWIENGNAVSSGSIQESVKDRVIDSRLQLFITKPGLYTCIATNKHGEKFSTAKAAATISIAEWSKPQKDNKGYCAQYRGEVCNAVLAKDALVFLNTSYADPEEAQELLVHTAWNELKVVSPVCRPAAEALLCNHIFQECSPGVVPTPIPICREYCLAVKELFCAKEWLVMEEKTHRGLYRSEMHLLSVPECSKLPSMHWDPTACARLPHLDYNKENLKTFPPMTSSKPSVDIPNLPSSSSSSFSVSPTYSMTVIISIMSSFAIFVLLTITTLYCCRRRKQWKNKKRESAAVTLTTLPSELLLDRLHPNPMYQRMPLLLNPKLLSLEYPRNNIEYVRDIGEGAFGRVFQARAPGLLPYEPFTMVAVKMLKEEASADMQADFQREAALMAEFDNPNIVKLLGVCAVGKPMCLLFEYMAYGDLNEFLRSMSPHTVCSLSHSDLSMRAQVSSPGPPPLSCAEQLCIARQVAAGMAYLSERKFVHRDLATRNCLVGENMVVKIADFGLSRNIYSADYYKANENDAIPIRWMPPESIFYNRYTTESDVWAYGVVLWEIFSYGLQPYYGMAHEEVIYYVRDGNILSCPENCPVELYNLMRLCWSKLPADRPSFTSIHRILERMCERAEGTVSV
The assay can be described thus: Inhibition of human recombinant MUSK at 500 nM related to control ULK1.

In assay [11] the target is Calcium/calmodulin-dependent protein kinase type II subunit alpha (Homo sapiens) (UniProt Q9UQM7). As to the kind of experiment: Inhibition of human recombinant CaMK2a at 15 nM in presence of ATP by radiometric assay relative to control.
Assay [12] deals with T4, Tribbles homolog 2 (Homo sapiens) (UniProt Q92519).
T4 sequence (whole entry): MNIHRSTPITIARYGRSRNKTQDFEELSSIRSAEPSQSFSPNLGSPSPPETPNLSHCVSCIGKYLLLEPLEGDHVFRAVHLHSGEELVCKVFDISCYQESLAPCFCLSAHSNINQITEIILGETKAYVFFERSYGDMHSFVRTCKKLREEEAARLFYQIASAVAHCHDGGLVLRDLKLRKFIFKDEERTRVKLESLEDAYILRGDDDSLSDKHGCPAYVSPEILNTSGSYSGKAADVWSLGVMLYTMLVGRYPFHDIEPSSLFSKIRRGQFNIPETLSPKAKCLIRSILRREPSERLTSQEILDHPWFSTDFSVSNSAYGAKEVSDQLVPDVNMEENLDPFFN
As to the kind of experiment: Inhibition of human recombinant Trb2 at 15 nM related to control ULK1.

Sequence of Tyrosine-protein kinase BTK (Homo sapiens) (Q06187 whole entry): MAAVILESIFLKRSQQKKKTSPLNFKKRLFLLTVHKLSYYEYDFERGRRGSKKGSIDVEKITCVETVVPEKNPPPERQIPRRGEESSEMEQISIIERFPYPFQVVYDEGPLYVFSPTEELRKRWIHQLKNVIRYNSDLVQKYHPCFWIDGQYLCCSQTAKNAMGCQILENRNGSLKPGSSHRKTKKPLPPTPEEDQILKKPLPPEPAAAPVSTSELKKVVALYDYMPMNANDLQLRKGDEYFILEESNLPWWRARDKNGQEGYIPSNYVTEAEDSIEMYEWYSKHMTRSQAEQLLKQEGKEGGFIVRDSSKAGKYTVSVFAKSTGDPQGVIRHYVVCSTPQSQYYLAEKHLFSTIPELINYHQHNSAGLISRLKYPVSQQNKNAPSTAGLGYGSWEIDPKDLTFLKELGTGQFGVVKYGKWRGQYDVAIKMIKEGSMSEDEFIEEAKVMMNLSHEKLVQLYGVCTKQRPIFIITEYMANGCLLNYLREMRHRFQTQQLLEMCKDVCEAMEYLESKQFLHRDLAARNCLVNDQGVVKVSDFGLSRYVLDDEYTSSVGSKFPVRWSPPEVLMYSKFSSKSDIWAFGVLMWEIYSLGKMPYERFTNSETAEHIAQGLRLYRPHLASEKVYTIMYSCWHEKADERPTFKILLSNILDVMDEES
Sequence of Protein kinase C delta type (Homo sapiens) (Q05655 whole entry, looked up): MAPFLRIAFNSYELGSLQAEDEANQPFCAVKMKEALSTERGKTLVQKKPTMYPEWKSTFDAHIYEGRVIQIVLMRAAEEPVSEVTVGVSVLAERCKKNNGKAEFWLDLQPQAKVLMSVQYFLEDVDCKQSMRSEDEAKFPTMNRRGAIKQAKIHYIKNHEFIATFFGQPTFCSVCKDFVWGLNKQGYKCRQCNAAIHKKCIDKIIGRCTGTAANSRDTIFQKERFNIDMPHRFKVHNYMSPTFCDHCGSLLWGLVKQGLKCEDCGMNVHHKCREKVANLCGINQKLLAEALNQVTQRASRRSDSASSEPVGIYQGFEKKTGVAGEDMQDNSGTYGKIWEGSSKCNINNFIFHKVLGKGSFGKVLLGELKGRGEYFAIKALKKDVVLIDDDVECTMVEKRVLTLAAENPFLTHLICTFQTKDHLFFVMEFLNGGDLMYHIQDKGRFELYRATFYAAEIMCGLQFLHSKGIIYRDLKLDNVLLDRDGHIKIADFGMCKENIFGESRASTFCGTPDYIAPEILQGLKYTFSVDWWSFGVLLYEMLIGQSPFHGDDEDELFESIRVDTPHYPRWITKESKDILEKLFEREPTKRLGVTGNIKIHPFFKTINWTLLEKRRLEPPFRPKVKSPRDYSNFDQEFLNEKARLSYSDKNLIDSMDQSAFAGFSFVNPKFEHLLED
Sequence of Tyrosine-protein kinase Fes/Fps (Homo sapiens) (P07332 whole entry): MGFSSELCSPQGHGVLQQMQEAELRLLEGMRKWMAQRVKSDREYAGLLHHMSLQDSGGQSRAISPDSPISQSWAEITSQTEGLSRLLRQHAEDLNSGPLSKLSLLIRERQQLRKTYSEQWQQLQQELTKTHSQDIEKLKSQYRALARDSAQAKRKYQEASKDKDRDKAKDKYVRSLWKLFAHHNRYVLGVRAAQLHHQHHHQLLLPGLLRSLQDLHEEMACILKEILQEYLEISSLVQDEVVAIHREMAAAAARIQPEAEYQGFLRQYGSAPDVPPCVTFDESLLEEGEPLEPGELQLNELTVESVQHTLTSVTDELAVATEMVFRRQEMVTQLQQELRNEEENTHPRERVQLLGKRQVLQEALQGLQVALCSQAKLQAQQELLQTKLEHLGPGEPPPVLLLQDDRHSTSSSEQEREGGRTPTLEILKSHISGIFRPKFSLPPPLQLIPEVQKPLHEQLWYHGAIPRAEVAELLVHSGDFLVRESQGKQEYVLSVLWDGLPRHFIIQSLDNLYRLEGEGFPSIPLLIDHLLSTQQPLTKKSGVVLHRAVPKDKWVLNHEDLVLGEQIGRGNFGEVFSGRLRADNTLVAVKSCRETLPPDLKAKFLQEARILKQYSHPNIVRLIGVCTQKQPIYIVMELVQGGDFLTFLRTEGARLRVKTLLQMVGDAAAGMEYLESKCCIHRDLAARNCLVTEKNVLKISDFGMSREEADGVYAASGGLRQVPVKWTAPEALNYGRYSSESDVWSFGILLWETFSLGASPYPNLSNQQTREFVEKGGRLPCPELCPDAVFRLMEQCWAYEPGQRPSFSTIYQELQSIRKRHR
Sequence of Tyrosine-protein kinase Fyn (Homo sapiens) (P06241 2-537 limits assumed): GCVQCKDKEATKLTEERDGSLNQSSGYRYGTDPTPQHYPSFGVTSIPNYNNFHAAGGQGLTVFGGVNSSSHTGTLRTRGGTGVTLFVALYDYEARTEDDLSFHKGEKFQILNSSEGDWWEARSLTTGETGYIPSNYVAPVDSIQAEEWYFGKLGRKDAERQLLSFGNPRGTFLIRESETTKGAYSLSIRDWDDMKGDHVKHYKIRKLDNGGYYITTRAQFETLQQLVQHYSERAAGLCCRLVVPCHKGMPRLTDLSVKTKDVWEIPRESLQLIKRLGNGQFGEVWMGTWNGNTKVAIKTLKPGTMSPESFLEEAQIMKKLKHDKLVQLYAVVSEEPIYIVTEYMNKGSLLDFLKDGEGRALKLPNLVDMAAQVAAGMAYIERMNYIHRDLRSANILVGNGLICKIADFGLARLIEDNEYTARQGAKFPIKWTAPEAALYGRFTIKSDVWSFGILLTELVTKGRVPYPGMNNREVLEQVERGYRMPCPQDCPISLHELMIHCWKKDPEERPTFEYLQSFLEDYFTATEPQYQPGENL
Sequence of Serine/threonine-protein kinase NIM1 (Homo sapiens) (Q8IY84 whole entry): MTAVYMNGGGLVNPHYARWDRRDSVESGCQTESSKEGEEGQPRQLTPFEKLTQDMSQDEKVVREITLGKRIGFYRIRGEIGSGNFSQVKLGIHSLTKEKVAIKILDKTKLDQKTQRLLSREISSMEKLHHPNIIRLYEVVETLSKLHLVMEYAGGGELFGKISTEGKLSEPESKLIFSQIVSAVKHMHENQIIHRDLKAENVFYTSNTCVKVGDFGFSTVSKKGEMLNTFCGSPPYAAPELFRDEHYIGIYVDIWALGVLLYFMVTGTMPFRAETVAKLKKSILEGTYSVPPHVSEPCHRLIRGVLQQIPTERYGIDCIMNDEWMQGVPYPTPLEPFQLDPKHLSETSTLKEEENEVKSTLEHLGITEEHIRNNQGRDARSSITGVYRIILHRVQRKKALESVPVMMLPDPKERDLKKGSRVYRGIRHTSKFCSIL
Sequence of Calcium/calmodulin-dependent protein kinase type II subunit alpha (Homo sapiens) (Q9UQM7 whole entry): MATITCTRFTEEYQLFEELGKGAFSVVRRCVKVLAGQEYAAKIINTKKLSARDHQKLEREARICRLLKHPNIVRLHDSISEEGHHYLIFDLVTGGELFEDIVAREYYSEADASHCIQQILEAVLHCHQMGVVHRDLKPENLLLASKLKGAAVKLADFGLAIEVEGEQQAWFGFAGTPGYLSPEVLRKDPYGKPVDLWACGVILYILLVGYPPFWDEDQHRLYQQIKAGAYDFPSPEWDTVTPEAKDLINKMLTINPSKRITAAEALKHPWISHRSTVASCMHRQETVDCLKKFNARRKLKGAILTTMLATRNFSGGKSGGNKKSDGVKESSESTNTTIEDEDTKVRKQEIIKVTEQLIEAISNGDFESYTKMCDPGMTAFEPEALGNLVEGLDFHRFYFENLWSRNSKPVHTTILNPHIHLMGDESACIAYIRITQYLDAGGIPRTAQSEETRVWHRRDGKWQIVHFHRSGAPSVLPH
Sequence of Angiopoietin-1 receptor (Homo sapiens) (Q02763 whole entry): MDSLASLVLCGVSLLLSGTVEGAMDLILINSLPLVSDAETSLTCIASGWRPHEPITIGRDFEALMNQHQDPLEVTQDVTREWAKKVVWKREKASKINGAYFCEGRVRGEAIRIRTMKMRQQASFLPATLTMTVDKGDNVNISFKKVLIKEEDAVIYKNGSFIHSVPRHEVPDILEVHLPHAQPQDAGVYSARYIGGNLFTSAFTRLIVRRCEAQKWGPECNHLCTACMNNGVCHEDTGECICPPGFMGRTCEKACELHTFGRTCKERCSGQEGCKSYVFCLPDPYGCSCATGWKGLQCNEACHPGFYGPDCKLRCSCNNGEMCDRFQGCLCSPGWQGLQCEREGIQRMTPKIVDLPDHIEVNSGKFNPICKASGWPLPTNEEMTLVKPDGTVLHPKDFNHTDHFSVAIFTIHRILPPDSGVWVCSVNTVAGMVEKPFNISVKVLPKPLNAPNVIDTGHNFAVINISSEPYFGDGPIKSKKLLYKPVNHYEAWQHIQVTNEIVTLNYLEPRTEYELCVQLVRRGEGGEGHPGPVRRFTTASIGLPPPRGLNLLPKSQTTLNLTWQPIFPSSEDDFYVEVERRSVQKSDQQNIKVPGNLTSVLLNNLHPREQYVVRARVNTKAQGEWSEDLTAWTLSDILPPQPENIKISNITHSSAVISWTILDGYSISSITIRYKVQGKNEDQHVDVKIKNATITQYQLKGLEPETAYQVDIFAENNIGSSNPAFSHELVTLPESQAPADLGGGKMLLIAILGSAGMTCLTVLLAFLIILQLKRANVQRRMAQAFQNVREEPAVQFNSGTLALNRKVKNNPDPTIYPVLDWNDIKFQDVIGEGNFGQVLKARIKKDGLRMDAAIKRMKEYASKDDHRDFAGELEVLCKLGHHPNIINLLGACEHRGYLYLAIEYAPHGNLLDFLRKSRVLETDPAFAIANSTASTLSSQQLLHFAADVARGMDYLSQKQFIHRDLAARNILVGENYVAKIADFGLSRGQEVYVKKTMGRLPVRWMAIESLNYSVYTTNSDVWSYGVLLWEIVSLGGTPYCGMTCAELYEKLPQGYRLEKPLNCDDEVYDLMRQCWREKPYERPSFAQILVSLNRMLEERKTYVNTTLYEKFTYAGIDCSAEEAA

Take `O=C(N[C@@H](C1CC1)C(F)(F)F)c1cc(-c2cnn3cc(-c4ccc(F)cc4)cnc23)cs1`: the inhibition in [1] and in assay [2] was 0% each time. The fold change (FC) came to 0.21 in [3] and 0 in assay [4].
On to `CNC(=O)c1ccccc1Oc1nc(Nc2cc(OC)c(OC)c(OC)c2)ncc1Br`, for which the inhibition in assay [5] was 4%; in assay [6], 0%; in assay [7] it was 3%. For the same compound, the fold change (FC) in assay [8] came to 0; in assay [9] it was 0; in assay [10], 0.46.
For the compound `CC(C)[C@H](NC(=O)c1cc(-c2cnn3cc(-c4ccc(OCCN5CCCCC5)cc4)cnc23)cs1)C(F)(F)F`, the inhibition in assay [11] was 41%. The fold change (FC) in [12] is 0.41.
